In assay [1] the test system is Staphylococcus aureus Strain Wood 46 in human polymorphonuclear leucocytes. The assay can be described thus: in vitro test on human polymorphonuclear leucocytes and Staphylococcus aureus Strain Wood 46. The conditions noted are these: S. aureus Strain Wood 46. The assay is classed as cell-based. The source says:
In the in vitro test on human polymorphonuclear leucocytes and Staphylococcus aureus Strain Wood 46, sorangicin A is effective against bacteria that occur intracellularly, e.g. staphylococcae.

Assay [2] addresses T1, reverse transcriptase of Moloney Murine leucaemia virus (Moloney murine leukemia virus, UniProt P03355).
T1 construct: reverse transcriptase of Moloney Murine leucaemia virus
The assay can be described thus: inhibition of reverse transcriptase enzyme. The assay is classed as biochemical. The conditions noted are these: reverse transcriptase of MLV; method of Wu et al.; read-out: ID50 (dose that inhibits the RT activity by 50%) (converted). The protocol: Proof of the antiviral activity of the compounds of formula I against retroviruses is shown by in vitro and in vivo tests, but especially by an in vitro test system in which the inhibition of the reverse transcriptase enzyme is determined quantitatively by said compounds.
On poly A-oligo (dT), radioactively labelled TPP is hybridised with reverse transcriptase. The […] radioactivity is measured and serves as reference for the activity of the reverse transcriptase.
The ID50 of the compounds of formula I is determined by using them in the test system in different concentrations.
Sorangicin A is active against reverse transcriptase of Moloney Murine leucaemia virus; the ID50 [dose that inhibits the RT activity by 50%; method of Wu et al., Proc. Natl. Acad. Sci., 69, 3820 (1972)] for the reverse transcriptase of MLV is c. 7 μg/ml.

For `CC(=CC(C)CCCCC(=O)O)C1OC2C=CC1OC(=O)C=CC=CC=CC1OC3CC1OC(C=CCC1OC(CC(O)C1C)C(O)C(O)C=CCCC=CC2)C3C` (stereo not drawn) [sorangicin A], in assay [1], the “activity against bacteria that occur intracellularly” value was “effective” and the activity within leucocytes entry is listed as “bactericidal activity”. Besides, in assay [2], the IC50 is around 8.67 µM.

Values taken from patent US5096922A, “Macrocyclic antibodies” (Gesellschaft fur Biotechnologische Forschung mbH, priority 1985, dated 1992).
